Laboratory results as given in US9486507B2, “Pro-coagulant compounds and methods of use thereof” (priority 2011, dated 2016).
“And” between values parts separate entries of the source, which are not always exact repeats. Equal values may be shown once.

How the values were obtained:
Type in all cases: biochemical
FIXa = FIXa (Homo sapiens, UniProt P00740); assay: FXa generation assay with human FIXa; design: purchased Haematologic Technologies; conditions: for Vmax: FXa generation assay, 10 nM hFIXa, 100 nM hFX, class symbols
[1] = test system: human HemA (severe) whole blood; assay: ROTEM in human HemA whole blood; conditions: 30 min pre-incubation
Description: Briefly, lyophilized and citrated FVIII deficient human plasma (Siemens) was reconstituted with 1 mL of distilled water, allowed to stand for 20 min at RT and mixed well before use. Alternatively, an aliquot of citrated (non-lyophilized) FVIII deficient human plasma (HRF, George King, Precision Biologics, or real-time donors) was thawed for 10 min in a 37° C. water bath and when needed centrifuged at 2800 g for 5 min at 25° C. FVIII deficient plasma was spiked with lyophilized platelets (Helena Laboratories, final concentration 0.5×10^8 cells/ml) and compounds, FVIII, or both compound and FVIII. Dilutions of compounds of the present disclosure and controls, such as FVIII, were prepared in PBS (—Ca, —Mg). Next, 300 μl of the spiked plasma was transferred to a ROTEM cup already containing 20 μl of StarTEM (concentrated calcium chloride solution) and 20 μl of lipidated TF (American Diagnostica, final concentration 10 fM) or Kaolin (Sigma-Aldrich, final concentration 0.4 μg/ml) and recording was initiated. The cups were maintained at 37° C. during the testing.
The only difference from the above described plasma Rotem is that the experiment is done in human HemA (severe) whole blood. No platelets were added as they are already present the in whole blood.

[2] = test system: FVIII deficient human plasma; assay: Thrombin generation assay (TGA) in FVIII-deficient plasma; conditions: Precision Biologics FVIII-deficient plasma (2)
[3] = test system: 10% FVIII-deficient human plasma; assay: Modified activated partial thromboplastin time (aPTT*) assay
Description: For the activated Partial Thromboplastin Time (aPTT) assay peptides to be tested were first diluted in 10% FVIII-deficient human plasma. For the aPTT* the peptides were diluted in 10% FVIII-deficient human plasma that contained traces of hFIXa (anywhere between 0 and 8.8 nM hFIXa depending on the assay) in Tris/NaCl/BSA buffer. The peptides were incubated for 10 minutes at room temperature and then assayed for clotting on a Sysmex instrument that recorded the clotting time observed for each sample. The times were compared to those of a standard curve derived from standards with known FVIII activity (U/mL) in order to determine the clotting outcome.

[4] = second Baseline (2) series, 2.5 μM
[5] = second Baseline (2) series, 5 μM
[6] = second Baseline (2) series, 10 μM
[7] = second Baseline (2) series, 20 μM
[8] = first Baseline (2) series, 2.5 μM
[9] = first Baseline (2) series, 5 μM
[10] = first Baseline (2) series, 10 μM

Chain of FIXa (P00740 47-191 limits assumed): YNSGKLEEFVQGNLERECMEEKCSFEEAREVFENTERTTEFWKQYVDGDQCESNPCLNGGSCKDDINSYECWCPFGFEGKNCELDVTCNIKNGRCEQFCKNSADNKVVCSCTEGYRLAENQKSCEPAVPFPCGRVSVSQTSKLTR
Chain of FIXa (P00740 227-461 limits assumed): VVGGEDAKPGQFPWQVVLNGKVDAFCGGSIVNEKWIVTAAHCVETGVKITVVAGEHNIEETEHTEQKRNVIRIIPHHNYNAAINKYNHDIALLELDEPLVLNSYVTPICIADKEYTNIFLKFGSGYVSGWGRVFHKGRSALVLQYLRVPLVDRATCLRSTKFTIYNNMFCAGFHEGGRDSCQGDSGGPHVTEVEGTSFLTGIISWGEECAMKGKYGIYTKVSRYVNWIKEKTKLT

Row | Substance | Vmax (FIXa) | Thrombin Above Baseline (nM) [2, 4] | Thrombin Above Baseline (nM) [2, 5] | Thrombin Above Baseline (nM) [2, 6] | Thrombin Above Baseline (nM) [2, 7] | Thrombin Above Baseline (nM) [2, 8] | Thrombin Above Baseline (nM) [2, 9] | Thrombin Above Baseline (nM) [2, 10] | also measured
1 | PRIRTVGPGSRSASGKLTCLASYCWLFWTGIA [Compound 21] | (++++) ((++++)>3) | – | – | – | – | – | – | – | Clotting time, sec ([1]; 2.5 μM): 1,057 sec and 1,090 sec; α-angle, degrees ([1]; 2.5 μM): 32 degrees; Clotting time ([1]; 5 μM): 930 s; α-angle, degrees ([1]; 5 μM): 32 degrees; Clotting time ([1]; 10 μM): 748 s and 703 s; α-angle, degrees ([1]; 10 μM): 44 degrees and 52 degrees; Clotting time ([1]; 20 μM): 952 s and 625 s; α-angle, degrees ([1]; 20 μM): 42 degrees and 43 degrees
2 | PRSRTVGPGSRSASGKSTCLASYCWLFWTGIA | (++++) ((++++)>3) | ++ (11-20 nM (1) or 30-59 nM (2) (++)) | +++ (21-30 nM (1) or 60-90 nM (2) (+++)) | ++++ (>30 nM (1) or >90 nM (2) (++++)) | ++++ (>30 nM (1) or >90 nM (2) (++++)) | – | – | – | –
3 | PRISTVGPGSRSASGKLTCLASYCWLFWTGIA | (++++) ((++++)>3) | – | – | – | – | + (1-10 nM (1) or 1-29 nM (2) (+)) | + (1-10 nM (1) or 1-29 nM (2) (+)) | + (1-10 nM (1) or 1-29 nM (2) (+)) | –
4 | PRIRTVGPGSRSASGKSTCLASYCWLFWTGIA | (++++) ((++++)>3) | + (1-10 nM (1) or 1-29 nM (2) (+)) | +++ (21-30 nM (1) or 60-90 nM (2) (+++)) | ++++ (>30 nM (1) or >90 nM (2) (++++)) | ++++ (>30 nM (1) or >90 nM (2) (++++)) | + (1-10 nM (1) or 1-29 nM (2) (+)) | ++ (11-20 nM (1) or 30-59 nM (2) (++)) | +++ (21-30 nM (1) or 60-90 nM (2) (+++)) | –
5 | SRIRTVSPGSRSASGKSTCLASYCWLFWTGIA | (++++) ((++++)>3) | +++ (21-30 nM (1) or 60-90 nM (2) (+++)) | +++ (21-30 nM (1) or 60-90 nM (2) (+++)) | ++++ (>30 nM (1) or >90 nM (2) (++++)) | ++++ (>30 nM (1) or >90 nM (2) (++++)) | – | – | – | –
6 | SRIRTVGPGSRSASGKSTCLASYCWLFWTGIA | (++++) ((++++)>3) | +++ (21-30 nM (1) or 60-90 nM (2) (+++)) | ++++ (>30 nM (1) or >90 nM (2) (++++)) | ++++ (>30 nM (1) or >90 nM (2) (++++)) | – | – | – | – | –
7 | k-MeLeu-TCLASYCWLF [Compound 2] | (++++) ((++++)>3) | – | – | – | – | – | – | – | Vmax (mOD/min min) (FIXa; PL: No): 3.05 mOD/min min; Vmax (mOD/min min) (FIXa; PL: Yes): 4.22 mOD/min min; Clotting time ([3]; aPTT* with FIXa, 5 μM): 50.3 s; Clotting time, sec ([3]; aPTT* with FIXa, 5 μM): 51.1; sec; Clotting time ([3]; aPTT* with FIXa, 10 μM): 42.2 s; Clotting time, sec ([3]; aPTT* with FIXa, 10 μM): 42.9; sec; Clotting time ([3]; aPTT* with FIXa, 20 μM): 42.3 s; Clotting time, sec ([3]; aPTT* with FIXa, 20 μM): 42.4; sec; Clotting time ([3]; aPTT*, FIXa 1 nM): 91.4 s; Clotting time, sec ([3]; aPTT*, FIXa 1 nM): 86.8; sec; Clotting time ([3]; aPTT*, FIXa 2 nM): 49.6 s; Clotting time, sec ([3]; aPTT*, FIXa 2 nM): 51.3; sec; Clotting time ([3]; aPTT*, FIXa 4 nM): 42.7 s; Clotting time, sec ([3]; aPTT*, FIXa 4 nM): 46.0; sec; Clotting time ([3]; aPTT*, FIXa 8 nM): 37.1 s; Clotting time, sec ([3]; aPTT*, FIXa 8 nM): 34.4; sec
8 | PRIRTSGPGSRSASGKLTCLASYCWLFWTGIA | (++++) ((++++)>3) | – | – | – | – | + (1-10 nM (1) or 1-29 nM (2) (+)) | ++ (11-20 nM (1) or 30-59 nM (2) (++)) | ++ (11-20 nM (1) or 30-59 nM (2) (++)) | –
9 | PRIRTVSPGSRSASGKLTCLASYCWLFWTGIA | (++++) ((++++)>3) | – | – | – | – | ++ (11-20 nM (1) or 30-59 nM (2) (++)) | +++ (21-30 nM (1) or 60-90 nM (2) (+++)) | ++++ (>30 nM (1) or >90 nM (2) (++++)) | –
10 | PSIRTVGPGSRSASGKLTCLASYCWLFWTGIA | (++++) ((++++)>3) | – | – | – | – | + (1-10 nM (1) or 1-29 nM (2) (+)) | + (1-10 nM (1) or 1-29 nM (2) (+)) | + (1-10 nM (1) or 1-29 nM (2) (+)) | –
